{"source": "patent US20160289186A1", "about": "“FLUOROMETHYL-SUBSTITUTED PYRROLE CA[…]” (Grunenthal GmbH, priority 2013, published 2016)", "biological_target": "T1, Human CaV2.2 channels (Homo sapiens, UniProt Q00975)", "T1 construct": "expressed in transfected cells; host or cells: HEK293", "T1 sequence (Q00975 whole entry)": "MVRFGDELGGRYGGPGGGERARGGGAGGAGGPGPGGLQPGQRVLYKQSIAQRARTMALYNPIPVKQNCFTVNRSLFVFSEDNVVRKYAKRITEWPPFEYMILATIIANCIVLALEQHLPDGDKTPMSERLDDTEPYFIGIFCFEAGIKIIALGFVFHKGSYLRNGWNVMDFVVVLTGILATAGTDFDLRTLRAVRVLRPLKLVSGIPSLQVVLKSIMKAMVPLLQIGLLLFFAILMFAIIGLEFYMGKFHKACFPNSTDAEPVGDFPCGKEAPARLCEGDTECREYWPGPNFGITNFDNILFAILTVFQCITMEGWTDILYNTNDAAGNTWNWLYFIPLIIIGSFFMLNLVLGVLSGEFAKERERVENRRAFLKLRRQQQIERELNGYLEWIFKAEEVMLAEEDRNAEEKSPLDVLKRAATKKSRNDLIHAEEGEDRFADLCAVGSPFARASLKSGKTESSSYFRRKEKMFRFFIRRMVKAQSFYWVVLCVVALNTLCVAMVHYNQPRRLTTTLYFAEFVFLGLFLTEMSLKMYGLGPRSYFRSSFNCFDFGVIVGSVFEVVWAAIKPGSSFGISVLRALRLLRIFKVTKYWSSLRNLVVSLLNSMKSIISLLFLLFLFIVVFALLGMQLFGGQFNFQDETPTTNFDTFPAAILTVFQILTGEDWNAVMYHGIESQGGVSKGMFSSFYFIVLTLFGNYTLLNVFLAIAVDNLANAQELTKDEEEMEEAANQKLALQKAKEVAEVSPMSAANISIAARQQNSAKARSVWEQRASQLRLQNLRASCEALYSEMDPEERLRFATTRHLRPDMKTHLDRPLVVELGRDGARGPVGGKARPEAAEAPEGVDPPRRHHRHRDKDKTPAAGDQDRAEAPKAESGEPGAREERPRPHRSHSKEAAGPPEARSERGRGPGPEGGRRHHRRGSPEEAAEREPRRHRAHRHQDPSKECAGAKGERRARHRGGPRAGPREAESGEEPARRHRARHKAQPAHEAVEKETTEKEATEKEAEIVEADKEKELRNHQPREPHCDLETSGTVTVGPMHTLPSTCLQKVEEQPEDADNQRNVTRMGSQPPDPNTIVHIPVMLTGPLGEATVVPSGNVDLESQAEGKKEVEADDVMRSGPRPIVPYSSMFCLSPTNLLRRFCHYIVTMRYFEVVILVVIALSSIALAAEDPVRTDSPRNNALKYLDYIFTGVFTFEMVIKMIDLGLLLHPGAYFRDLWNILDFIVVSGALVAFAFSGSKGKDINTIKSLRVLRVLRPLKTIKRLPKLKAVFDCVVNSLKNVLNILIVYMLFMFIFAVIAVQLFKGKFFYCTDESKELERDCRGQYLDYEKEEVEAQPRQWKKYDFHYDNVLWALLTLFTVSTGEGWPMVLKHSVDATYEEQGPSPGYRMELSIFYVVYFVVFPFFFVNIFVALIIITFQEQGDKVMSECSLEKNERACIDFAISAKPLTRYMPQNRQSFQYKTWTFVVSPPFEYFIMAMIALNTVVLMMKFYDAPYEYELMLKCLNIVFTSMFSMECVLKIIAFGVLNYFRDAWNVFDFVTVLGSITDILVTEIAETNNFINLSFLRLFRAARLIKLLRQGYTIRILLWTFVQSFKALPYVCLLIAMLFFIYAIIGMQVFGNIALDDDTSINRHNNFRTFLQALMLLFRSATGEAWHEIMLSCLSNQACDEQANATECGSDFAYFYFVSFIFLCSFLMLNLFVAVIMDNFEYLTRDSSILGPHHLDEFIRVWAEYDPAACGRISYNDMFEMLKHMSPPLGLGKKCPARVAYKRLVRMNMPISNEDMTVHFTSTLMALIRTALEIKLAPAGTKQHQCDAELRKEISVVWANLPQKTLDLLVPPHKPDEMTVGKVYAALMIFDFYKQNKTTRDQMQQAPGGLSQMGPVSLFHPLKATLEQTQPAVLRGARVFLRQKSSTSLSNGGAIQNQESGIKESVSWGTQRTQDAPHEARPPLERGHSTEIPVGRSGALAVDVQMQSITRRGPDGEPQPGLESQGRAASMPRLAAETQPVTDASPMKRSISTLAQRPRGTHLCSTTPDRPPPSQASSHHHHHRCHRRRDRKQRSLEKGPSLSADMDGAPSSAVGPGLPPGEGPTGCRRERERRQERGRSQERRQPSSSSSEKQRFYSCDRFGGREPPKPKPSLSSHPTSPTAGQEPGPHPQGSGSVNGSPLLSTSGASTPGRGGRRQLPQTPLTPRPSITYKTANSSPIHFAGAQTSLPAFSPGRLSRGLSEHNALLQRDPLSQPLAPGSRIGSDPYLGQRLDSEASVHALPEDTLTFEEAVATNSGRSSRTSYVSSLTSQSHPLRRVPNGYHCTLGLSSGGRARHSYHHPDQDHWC", "T1 sequence (P54284 whole entry, further chain)": "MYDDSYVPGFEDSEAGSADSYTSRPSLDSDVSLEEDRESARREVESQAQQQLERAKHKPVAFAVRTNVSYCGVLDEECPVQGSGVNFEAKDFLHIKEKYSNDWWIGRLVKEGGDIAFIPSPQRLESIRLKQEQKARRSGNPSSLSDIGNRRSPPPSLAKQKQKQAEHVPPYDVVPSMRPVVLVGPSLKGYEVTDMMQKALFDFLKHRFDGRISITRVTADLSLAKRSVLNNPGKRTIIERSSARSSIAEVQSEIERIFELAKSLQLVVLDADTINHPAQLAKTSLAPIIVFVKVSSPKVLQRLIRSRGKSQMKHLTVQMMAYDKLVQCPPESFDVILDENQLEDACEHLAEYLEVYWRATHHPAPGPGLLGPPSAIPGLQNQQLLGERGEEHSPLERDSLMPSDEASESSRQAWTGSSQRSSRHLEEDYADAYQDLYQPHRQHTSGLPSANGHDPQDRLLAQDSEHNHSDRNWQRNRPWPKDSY", "T1 sequence (P54289 25-1103, further chain)": "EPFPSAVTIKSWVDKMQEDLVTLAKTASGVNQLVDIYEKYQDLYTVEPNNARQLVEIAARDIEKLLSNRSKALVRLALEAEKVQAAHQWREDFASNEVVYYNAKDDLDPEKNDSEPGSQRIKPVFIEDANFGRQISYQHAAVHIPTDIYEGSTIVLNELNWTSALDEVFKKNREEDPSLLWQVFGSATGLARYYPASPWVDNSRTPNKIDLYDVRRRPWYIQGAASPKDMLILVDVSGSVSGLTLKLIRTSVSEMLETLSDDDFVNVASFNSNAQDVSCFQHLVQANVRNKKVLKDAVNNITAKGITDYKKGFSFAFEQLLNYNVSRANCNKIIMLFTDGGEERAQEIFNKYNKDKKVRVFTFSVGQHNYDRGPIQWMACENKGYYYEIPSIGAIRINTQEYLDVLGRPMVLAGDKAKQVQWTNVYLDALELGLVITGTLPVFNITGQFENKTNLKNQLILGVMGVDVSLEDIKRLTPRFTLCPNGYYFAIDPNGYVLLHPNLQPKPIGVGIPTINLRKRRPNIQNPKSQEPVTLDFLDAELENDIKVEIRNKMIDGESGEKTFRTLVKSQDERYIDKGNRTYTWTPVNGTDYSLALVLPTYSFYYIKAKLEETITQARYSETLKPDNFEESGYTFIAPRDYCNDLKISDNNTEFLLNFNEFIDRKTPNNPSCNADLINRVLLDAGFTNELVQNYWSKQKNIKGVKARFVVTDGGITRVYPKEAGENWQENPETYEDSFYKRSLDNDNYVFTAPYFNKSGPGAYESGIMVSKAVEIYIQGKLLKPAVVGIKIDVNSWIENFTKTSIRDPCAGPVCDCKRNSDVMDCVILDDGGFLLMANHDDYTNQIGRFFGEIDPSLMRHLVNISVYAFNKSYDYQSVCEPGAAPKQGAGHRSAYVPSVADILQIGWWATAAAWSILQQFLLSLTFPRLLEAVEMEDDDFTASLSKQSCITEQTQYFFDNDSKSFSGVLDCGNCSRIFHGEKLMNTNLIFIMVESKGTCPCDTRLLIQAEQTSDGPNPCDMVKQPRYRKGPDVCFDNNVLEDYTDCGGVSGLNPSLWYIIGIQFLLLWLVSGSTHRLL", "test": "Fluorescent (FLIPR) assay for CaV2.2 channels using potassium depolarization to induce channel opening", "type": "cell-based", "details": "3 μM compound; 30 mM KCl assay buffer (inactivated channel state); HEK293 cells stably expressing human CaV2.2; read-out: Activity Category: %-Inhib (CaV2.2) @3 μM @30 mM KCl", "procedure,_shortened": "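HEK293 cells stably co-expressing human CaV2.2 with α2δ and β subunits plus Kir2.3, Fluo-4 loaded; compounds preincubated 15 min at 25 °C in 1 mM or 30 mM KCl buffer (inactivated state), pH 7.4. Depolarized by KCl addition; baseline-normalized peak fluorescence (ex 480/em 535 nm) gave inhibition.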"}
{"compound": "Cc1cc(CN(C)C(=O)c2c(-c3ccc(F)cc3)cc(C(F)(F)F)n2CC2CCCO2)no1", "note": "(centres unmarked) [Example 075, 3-(4-Fluorophenyl)-N-methyl-N-[(5-methyl-isoxazol-3-yl)-methyl]-1-(tetrahydro-furan-2-yl-methyl)-5-(trifluoromethyl)-1H-pyrrole-2-carboxylic acid amide]", "values": [{"measurement": "inhibition at 3 µM", "value": "75 to 95", "unit": "%"}]}
{"compound": "Cc1cnc(CN(C)C(=O)c2c(-c3ccc(F)cc3)cc(C(F)(F)F)n2CC2CCCO2)cn1", "note": "(centres unmarked) [Example 077, 3-(4-Fluorophenyl)-N-methyl-N-[(5-methyl-pyrazin-2-yl)-methyl]-1-(tetrahydro-furan-2-yl-methyl)-5-(trifluoromethyl)-1H-pyrrole-2-carboxylic acid amide]", "values": [{"measurement": "inhibition at 3 µM", "value": "75 to 95", "unit": "%"}]}
{"compound": "CN(CCS(C)(=O)=O)C(=O)c1c(-c2ccc(F)cc2)cc(C(F)(F)F)n1CC1CCCO1", "note": "(centres unmarked) [Example 078, 3-(4-Fluorophenyl)-N-methyl-N-(2-methylsulfonyl-ethyl)-1-(tetrahydro-furan-2-yl-methyl)-5-(trifluoromethyl)-1H-pyrrole-2-carboxylic acid amide]", "values": [{"measurement": "inhibition at 3 µM", "value": "40 to 75", "unit": "%"}]}
{"compound": "O=C1CN(C(=O)c2c(-c3ccc(F)cc3)cc(C(F)(F)F)n2CC2CCCO2)CCN1", "note": "(centres unmarked) [Example 079, 4-[3-(4-Fluorophenyl)-1-(tetrahydro-furan-2-yl-methyl)-5-(trifluoromethyl)-1H-pyrrole-2-carbonyl]-piperazin-2-one]", "values": [{"measurement": "inhibition at 3 µM", "value": "40 to 75", "unit": "%"}]}
{"compound": "CC1(C)CN(C(=O)c2c(-c3ccc(F)cc3)cc(C(F)(F)F)n2CC2CCCO2)CCO1", "note": "(centres unmarked) [Example 080, (2,2-Dimethyl-morpholin-4-yl)-[3-(4-fluorophenyl)-1-(tetrahydro-furan-2-yl-methyl)-5-(trifluoromethyl)-1H-pyrrol-2-yl]-methanone]", "values": [{"measurement": "inhibition at 3 µM", "value": "75 to 95", "unit": "%"}]}
{"compound": "O=C(c1c(-c2ccc(F)cc2)cc(C(F)(F)F)n1CC1CCCO1)N1CCOCC1", "note": "(centres unmarked) [Example 081, [3-(4-Fluorophenyl)-1-(tetrahydro-furan-2-yl-methyl)-5-(trifluoromethyl)-1H-pyrrol-2-yl]-morpholin-4-yl-methanone]", "values": [{"measurement": "inhibition at 3 µM", "value": "40 to 75", "unit": "%"}]}
{"compound": "O=C(NC1CC1)c1c(-c2ccc(F)cc2)cc(C(F)(F)F)n1CC1CCCO1", "note": "(centres unmarked) [Example 082, N-Cyclopropyl-3-(4-fluorophenyl)-1-(tetrahydro-furan-2-yl-methyl)-5-(trifluoromethyl)-1H-pyrrole-2-carboxylic acid amide]", "values": [{"measurement": "inhibition at 3 µM", "value": "40 to 75", "unit": "%"}]}
{"compound": "CN(CC(C)(C)C)C(=O)c1c(-c2ccc(Cl)cc2)cc(C(F)(F)F)n1CC1CCCO1", "note": "(centres unmarked) [Example 083, 3-(4-Chlorophenyl)-N-(2,2-dimethyl-propyl)-N-methyl-1-(tetrahydro-furan-2-yl-methyl)-5-(trifluoromethyl)-1H-pyrrole-2-carboxylic acid amide]", "values": [{"measurement": "inhibition at 3 µM", "value": "75 to 95", "unit": "%"}]}
{"compound": "Cc1c(-c2ccc(Cl)cc2)c(C(=O)N2CCOC(C)(C)C2)n(CC2CC2)c1C(F)(F)F", "note": "[Example 084, [3-(4-Chlorophenyl)-1-(cyclopropyl-methyl)-4-methyl-5-(trifluoromethyl)-1H-pyrrol-2-yl]-(2,2-dimethyl-morpholin-4-yl)-methanone]", "values": [{"measurement": "inhibition at 3 µM", "value": "> 95", "unit": "%"}]}
{"compound": "Cc1c(-c2ccc(Cl)cc2)c(C(=O)N2CCOC(C)(C)C2)n(CC2CCC2)c1C(F)(F)F", "note": "[Example 085, [3-(4-Chlorophenyl)-1-(cyclobutyl-methyl)-4-methyl-5-(trifluoromethyl)-1H-pyrrol-2-yl]-(2,2-dimethyl-morpholin-4-yl)-methanone]", "values": [{"measurement": "inhibition at 3 µM", "value": "75 to 95", "unit": "%"}]}
{"compound": "Cc1c(-c2ccc(Cl)cc2)c(C(=O)N2CCOCC2)n(CC#CC2CC2)c1C(F)(F)F", "note": "[Example 086, [3-(4-Chlorophenyl)-1-(3-cyclopropyl-prop-2-ynyl)-4-methyl-5-(trifluoromethyl)-1H-pyrrol-2-yl]-morpholin-4-yl-methanone]", "values": [{"measurement": "inhibition at 3 µM", "value": "> 95", "unit": "%"}]}
{"compound": "Cc1c(-c2ccc(Cl)cc2)c(C(=O)N2CCOCC2)n(CC2(C)CC2)c1C(F)(F)F", "note": "[Example 087, [3-(4-Chlorophenyl)-4-methyl-1-[(1-methyl-cyclopropyl)-methyl]-5-(trifluoromethyl)-1H-pyrrol-2-yl]-morpholin-4-yl-methanone]", "values": [{"measurement": "inhibition at 3 µM", "value": "> 95", "unit": "%"}]}
{"compound": "CN(CC(C)(C)C)C(=O)c1c(-c2ccc(Cl)cc2)cc(C(F)(F)F)n1CC1(N)CC1", "note": "[Example 088, 1-[(1-Amino-cyclopropyl)-methyl]-3-(4-chlorophenyl)-N-(2,2-dimethyl-propyl)-N-methyl-5-(trifluoromethyl)-1H-pyrrole-2-carboxylic acid amide]", "values": [{"measurement": "inhibition at 3 µM", "value": "75 to 95", "unit": "%"}]}
{"compound": "Cc1c(-c2ccc(Cl)cc2)c(C(=O)N2CCOCC2)n(CC2(O)CC2)c1C(F)(F)F", "note": "[Example 089, [3-(4-Chlorophenyl)-1-[(1-hydroxy-cyclopropyl)-methyl]-4-methyl-5-(trifluoromethyl)-1H-pyrrol-2-yl]-morpholin-4-yl-methanone]", "values": [{"measurement": "inhibition at 3 µM", "value": "> 95", "unit": "%"}]}
{"compound": "CN(CC(C)(C)C)C(=O)c1c(-c2ccc(Cl)cc2)cc(C(F)(F)F)n1CC1(O)CCCC1", "note": "[Example 090, 3-(4-Chlorophenyl)-N-(2,2-dimethyl-propyl)-1-[(1-hydroxy-cyclopentyl)-methyl]-N-methyl-5-(trifluoromethyl)-1H-pyrrole-2-carboxylic acid amide]", "values": [{"measurement": "inhibition at 3 µM", "value": "75 to 95", "unit": "%"}]}
{"compound": "CN(CC(C)(C)C)C(=O)c1c(-c2ccc(Cl)cc2)cc(C(F)(F)F)n1CC1CCCN1", "note": "(centres unmarked) [Example 091, 3-(4-Chlorophenyl)-N-(2,2-dimethyl-propyl)-N-methyl-1-(pyrrolidin-2-yl-methyl)-5-(trifluoromethyl)-1H-pyrrole-2-carboxylic acid amide]", "values": [{"measurement": "inhibition at 3 µM", "value": "> 95", "unit": "%"}]}
{"compound": "Cc1c(-c2ccc(Cl)cc2)c(C(=O)N(C)CCS(C)(=O)=O)n(CC2(N)CC2)c1C(F)(F)F", "note": "[Example 093, 1-[(1-Amino-cyclopropyl)-methyl]-3-(4-chlorophenyl)-N,4-dimethyl-N-(2-methylsulfonyl-ethyl)-5-(trifluoromethyl)-1H-pyrrole-2-carboxylic acid amide]", "values": [{"measurement": "inhibition at 3 µM", "value": "75 to 95", "unit": "%"}]}
{"compound": "Cc1c(-c2ccc(Cl)cc2)c(C(=O)N(C)CCS(C)(=O)=O)n(CC2(O)CCCC2)c1C(F)(F)F", "note": "[Example 094, 3-(4-Chlorophenyl)-1-[(1-hydroxy-cyclopentyl)-methyl]-N,4-dimethyl-N-(2-methylsulfonyl-ethyl)-5-(trifluoromethyl)-1H-pyrrole-2-carboxylic acid amide]", "values": [{"measurement": "inhibition at 3 µM", "value": "> 95", "unit": "%"}]}
{"compound": "Cc1c(-c2ccc(Cl)cc2)c(C(=O)N2CCOCC2)n(CC2(N)CC2)c1C(F)(F)F", "note": "[Example 095, [1-[(1-Amino-cyclopropyl)-methyl]-3-(4-chlorophenyl)-4-methyl-5-(trifluoromethyl)-1H-pyrrol-2-yl]-morpholin-4-yl-methanone]", "values": [{"measurement": "inhibition at 3 µM", "value": "75 to 95", "unit": "%"}]}
{"compound": "Cc1c(-c2ccc(Cl)cc2)c(C(=O)N2CCOCC2)n(CC2(O)CCCC2)c1C(F)(F)F", "note": "[Example 096, [3-(4-Chlorophenyl)-1-[(1-hydroxy-cyclopentyl)-methyl]-4-methyl-5-(trifluoromethyl)-1H-pyrrol-2-yl]-morpholin-4-yl-methanone]", "values": [{"measurement": "inhibition at 3 µM", "value": "75 to 95", "unit": "%"}]}
{"compound": "Cc1c(-c2ccc(Cl)cc2)c(C(=O)N2CCOCC2)n(CC2CCOCC2)c1C(F)(F)F", "note": "[Example 097, [3-(4-Chlorophenyl)-4-methyl-1-(tetrahydro-pyran-4-yl-methyl)-5-(trifluoromethyl)-1H-pyrrol-2-yl]-morpholin-4-yl-methanone]", "values": [{"measurement": "inhibition at 3 µM", "value": "> 95", "unit": "%"}]}
{"compound": "Cc1c(-c2ccc(Cl)cc2)c(C(=O)N2CCOCC2)n(CCN2CC(F)(F)C2)c1C(F)(F)F", "note": "[Example 098, [3-(4-Chlorophenyl)-1-[2-(3,3-difluoro-azetidin-1-yl)-ethyl]-4-methyl-5-(trifluoromethyl)-1H-pyrrol-2-yl]-morpholin-4-yl-methanone]", "values": [{"measurement": "inhibition at 3 µM", "value": "> 95", "unit": "%"}]}
{"compound": "Cc1c(-c2ccc(Cl)cc2)c(C(=O)N2CCOCC2)n(CCS(C)(=O)=O)c1C(F)(F)F", "note": "[Example 099, [3-(4-Chlorophenyl)-4-methyl-1-(2-methylsulfonyl-ethyl)-5-(trifluoromethyl)-1H-pyrrol-2-yl]-morpholin-4-yl-methanone]", "values": [{"measurement": "inhibition at 3 µM", "value": "40 to 75", "unit": "%"}]}
{"compound": "CN(CC(C)(C)C)C(=O)c1c(-c2ccc(Cl)cc2)cc(C(F)(F)F)n1CC1(C#N)CC1", "note": "[Example 100, 3-(4-Chlorophenyl)-1-[(1-cyano-cyclopropyl)-methyl]-N-(2,2-dimethyl-propyl)-N-methyl-5-(trifluoromethyl)-1H-pyrrole-2-carboxylic acid amide]", "values": [{"measurement": "inhibition at 3 µM", "value": "75 to 95", "unit": "%"}]}
{"compound": "Cc1c(-c2ccc(Cl)cc2)c(C(=O)N2CCOC(C)(C)C2)n(C)c1C(F)(F)F", "note": "[Example 102, [3-(4-Chlorophenyl)-1,4-dimethyl-5-(trifluoromethyl)-1H-pyrrol-2-yl]-(2,2-dimethyl-morpholin-4-yl)-methanone]", "values": [{"measurement": "inhibition at 3 µM", "value": "75 to 95", "unit": "%"}]}
{"compound": "CCn1c(C(=O)N2CCOC(C)(C)C2)c(-c2ccc(Cl)cc2)c(C)c1C(F)(F)F", "note": "[Example 103, [3-(4-Chlorophenyl)-1-ethyl-4-methyl-5-(trifluoromethyl)-1H-pyrrol-2-yl]-(2,2-dimethyl-morpholin-4-yl)-methanone]", "values": [{"measurement": "inhibition at 3 µM", "value": "75 to 95", "unit": "%"}]}
{"compound": "Cc1c(-c2ccc(Cl)cc2)c(C(=O)N2CC3CC2CO3)n(CC(C)C)c1C(F)(F)F", "note": "(centres unmarked) [Example 104, [3-(4-Chlorophenyl)-4-methyl-1-(2-methyl-propyl)-5-(trifluoromethyl)-1H-pyrrol-2-yl]-(2-oxa-5-azabicyclo[2.2.1]heptan-5-yl)-methanone]", "values": [{"measurement": "inhibition at 3 µM", "value": "> 95", "unit": "%"}]}
{"compound": "Cc1c(-c2ccc(Cl)cc2)c(C(=O)N(C)CC(C)(C)C(N)=O)n(C(C)C)c1C(F)(F)F", "note": "[Example 105, N-(2-Carbamoyl-2-methyl-propyl)-3-(4-chlorophenyl)-1-isopropyl-N,4-dimethyl-5-(trifluoromethyl)-1H-pyrrole-2-carboxylic acid amide]", "values": [{"measurement": "inhibition at 3 µM", "value": "75 to 95", "unit": "%"}]}
{"compound": "Cc1c(-c2ccc(Cl)cc2)c(C(=O)N(C)CC(C)(C)C#N)n(C(C)C)c1C(F)(F)F", "note": "[Example 106, 3-(4-Chlorophenyl)-N-(2-cyano-2-methyl-propyl)-1-isopropyl-N,4-dimethyl-5-(trifluoromethyl)-1H-pyrrole-2-carboxylic acid amide]", "values": [{"measurement": "inhibition at 3 µM", "value": "75 to 95", "unit": "%"}]}
